For eight compounds, GI50 and TGI results are on record in PubChem BioAssay (NCI).

Test systems include A498 renal; A549 NSCLC; CAKI-1 renal; NCI-H522 lung; NCI/ADR-RES ovarian; OVCAR-3 ovarian; OVCAR-4 ovarian; PC-3 prostate; SNB-75 CNS; UACC-257 melanoma.
Test in all cases: NCI-60 cell line screen, 48 h

Values joined by “and” are separate entries in the source; they are usually repeats but may differ in a detail not shown here. Identical values can stand only once.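 Grown in 96-well plates, cells were treated for 48 hours with each compound at five concentrations. Insufficient inhibition: endpoint recorded as highest concentration tested. The concentration for 50% growth inhibition is given as GI50. The concentration for full growth arrest is given as TGI.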 A value given as a limit tells only on which side of the number the result lay.

Take `O=C1C(=O)c2c(nc3ccc(Cl)cn23)-c2ccccc21`: the GI50 was 1.64 µM in the assay on A498 renal; 0.84 µM in the assay with A549 NSCLC; 0.477 µM in the assay with CAKI-1 renal; 0.668 µM with NCI-H522 lung; 0.344 µM in the assay on NCI/ADR-RES ovarian; 0.249 µM in the assay with OVCAR-3 ovarian. The GI50 in the assay on OVCAR-4 ovarian is 0.207 µM; with PC-3 prostate it was 1.2 µM; with SNB-75 CNS it was 1.25 µM; in the assay on UACC-257 melanoma, 0.284 µM. Moreover, the TGI in the assay on A498 renal stood at 3.11 µM; in the assay with CAKI-1 renal, 1.04 µM; in the assay on NCI-H522 lung, 2 µM; with NCI/ADR-RES ovarian, 2.04 µM; with OVCAR-3 ovarian, 0.908 µM; in the assay on OVCAR-4 ovarian, 0.463 µM. The TGI with PC-3 prostate is 10.6 µM; with SNB-75 CNS it was 2.61 µM; with UACC-257 melanoma, 0.803 µM.
In the case of `Cc1ccc(C(=O)Nc2cccc(C(F)(F)F)c2)cc1Nc1nc(-c2cccnc2)nc2c1cnn2C`, the GI50 with A498 renal is 1.6 µM; in the assay on A549 NSCLC, 3.2 µM and 2.11 µM; in the assay with CAKI-1 renal, 2.44 µM and 1.33 µM; in the assay with NCI-H522 lung, 4.68 µM and 1.37 µM; with NCI/ADR-RES ovarian it was 2.19 µM and 1.54 µM; in the assay on OVCAR-3 ovarian it was 3.86 µM and 2.53 µM. For the same compound, the GI50 was 4.56 µM and 2.59 µM with OVCAR-4 ovarian; 3.05 µM and 2.65 µM in the assay with PC-3 prostate; 2.83 µM and 2.17 µM in the assay with SNB-75 CNS; 2.02 µM and 0.875 µM in the assay with UACC-257 melanoma. Also, the TGI in the assay on A498 renal was 5.01 µM; with A549 NSCLC it was 16.1 µM and > 10 µM; in the assay on CAKI-1 renal, 11.8 µM and 3.35 µM; in the assay on NCI-H522 lung it was 27.3 µM and 5.09 µM; with NCI/ADR-RES ovarian it was 6.96 µM and 5.68 µM; in the assay on OVCAR-3 ovarian, 17.4 µM and 7.27 µM. The TGI in the assay on OVCAR-4 ovarian was 30.3 µM and > 10 µM; with PC-3 prostate, 11.1 µM and > 10 µM; in the assay on SNB-75 CNS, 11.1 µM and 6.05 µM; with UACC-257 melanoma, 8.28 µM and 4.76 µM.
Consider `Cc1cc2c3ccc(C)[n+](C)c3ccc2n1C`, for which the GI50 is 0.357 µM in the assay with A498 renal; 0.46 µM in the assay on A549 NSCLC; 30.5 µM in the assay on CAKI-1 renal; 4.83 µM in the assay with NCI-H522 lung; above 100 µM in the assay on NCI/ADR-RES ovarian; 3.45 µM in the assay with OVCAR-3 ovarian. The GI50 with OVCAR-4 ovarian is 4.18 µM; in the assay with PC-3 prostate, 1.26 µM; with SNB-75 CNS, 3.15 µM; with UACC-257 melanoma, 3.45 µM. Moreover, the TGI is 3.8 µM in the assay with A498 renal; 9.3 µM with A549 NSCLC; above 100 µM in the assay on CAKI-1 renal; 29.3 µM in the assay with NCI-H522 lung; above 100 µM with NCI/ADR-RES ovarian; 23.2 µM in the assay with OVCAR-3 ovarian. In addition, the TGI in the assay on OVCAR-4 ovarian was 30.1 µM; in the assay on PC-3 prostate it was 9.11 µM; with SNB-75 CNS, 14.7 µM; with UACC-257 melanoma it was 16.1 µM.
Turning to `O=C1C=C(Br)c2c(-c3ccccc3)oc3cccc1c23`, the TGI with A498 renal, with A549 NSCLC, in the assay on CAKI-1 renal, in the assay on NCI-H522 lung, in the assay on NCI/ADR-RES ovarian and in the assay on OVCAR-3 ovarian was above 100 µM in each case. Further, the TGI in the assay on OVCAR-4 ovarian was above 100 µM; in the assay with PC-3 prostate it was above 100 µM; in the assay on SNB-75 CNS, 42.5 µM; in the assay with UACC-257 melanoma, above 100 µM.
On to `COc1cccc(C=Nc2cc(C)ccn2)c1O.COc1cccc(C=Nc2cc(C)ccn2)c1O.[Cu]`, for which the GI50 in the assay with A498 renal is 22.8 µM; in the assay with A549 NSCLC, 27.8 µM; in the assay with CAKI-1 renal it was 20.5 µM; in the assay with NCI-H522 lung it was 22.3 µM; in the assay with NCI/ADR-RES ovarian it was 19.1 µM; in the assay with OVCAR-3 ovarian, 14 µM. For the same compound, the GI50 with OVCAR-4 ovarian was 25.4 µM; in the assay with PC-3 prostate, 17.8 µM; in the assay on SNB-75 CNS, 18.8 µM; in the assay on UACC-257 melanoma, 19.1 µM. Also, the TGI is 43.4 µM in the assay with A498 renal; 90.1 µM with A549 NSCLC; 46 µM in the assay with CAKI-1 renal; 52.3 µM in the assay on NCI-H522 lung; 68.3 µM with NCI/ADR-RES ovarian; 40.9 µM in the assay with OVCAR-3 ovarian. For the same compound, the TGI was above 100 µM with OVCAR-4 ovarian, 42.9 µM in the assay with PC-3 prostate, 44.9 µM with SNB-75 CNS and 43.1 µM in the assay on UACC-257 melanoma.
Take `CC(=O)NC1=C(OS(=O)(=O)c2ccc(C)cc2)CN(C)C1=O`: the TGI was 18 µM with A498 renal; 15.3 µM in the assay with A549 NSCLC; 14 µM in the assay with CAKI-1 renal; 9.74 µM in the assay on NCI-H522 lung; 44.9 µM in the assay with NCI/ADR-RES ovarian; 8.14 µM in the assay with OVCAR-3 ovarian. The TGI in the assay on OVCAR-4 ovarian amounted to 20.9 µM; in the assay with PC-3 prostate, 10.1 µM; in the assay with SNB-75 CNS, 15.1 µM; in the assay on UACC-257 melanoma, 11.8 µM.
Regarding `CCN1CCC(CCOC)(CN2c3ccccc3Sc3ccc(Cl)cc32)C1` (centres undefined), the GI50 in the assay with A498 renal is 1.95 µM; in the assay with A549 NSCLC it was 1.9 µM; in the assay on CAKI-1 renal it was 1.64 µM; in the assay with NCI-H522 lung, 1.74 µM; in the assay with NCI/ADR-RES ovarian it was 1.73 µM; in the assay with OVCAR-3 ovarian, 1.88 µM. For the same compound, the GI50 was 2.72 µM in the assay with OVCAR-4 ovarian, 2.03 µM in the assay with PC-3 prostate, 2.25 µM with SNB-75 CNS and 1.93 µM in the assay on UACC-257 melanoma. The TGI with A498 renal was 7.39 µM; with A549 NSCLC, 3.56 µM; with CAKI-1 renal, 3.11 µM; in the assay with NCI-H522 lung, 3.59 µM; in the assay with NCI/ADR-RES ovarian, 3.89 µM; in the assay on OVCAR-3 ovarian, 4.1 µM. In addition, the TGI came to 8.66 µM in the assay with OVCAR-4 ovarian, 4.74 µM with PC-3 prostate, 5.8 µM in the assay on SNB-75 CNS and 3.87 µM in the assay with UACC-257 melanoma.
Turning to `O=C(c1ccccc1)C(CN1CCOCC1)c1ccccc1` (centres undefined), the GI50 is 2.49 µM in the assay on A498 renal; 3.94 µM in the assay with A549 NSCLC; 0.565 µM in the assay with CAKI-1 renal; 0.255 µM in the assay with NCI-H522 lung; 2.83 µM in the assay on NCI/ADR-RES ovarian; 0.465 µM in the assay on OVCAR-3 ovarian. The GI50 is 3.88 µM with OVCAR-4 ovarian, 2.93 µM in the assay on PC-3 prostate, 2.29 µM with SNB-75 CNS and 1.37 µM in the assay on UACC-257 melanoma. Also, the TGI in the assay on A498 renal came out at 11.2 µM; in the assay on A549 NSCLC it was 14.9 µM; with CAKI-1 renal, 1.95 µM; in the assay on NCI-H522 lung it was 0.995 µM; with NCI/ADR-RES ovarian, 14.1 µM; in the assay on OVCAR-3 ovarian, 1.66 µM. Besides, the TGI with OVCAR-4 ovarian was 19.3 µM; in the assay with PC-3 prostate, 13.3 µM; with SNB-75 CNS it was 12 µM; in the assay with UACC-257 melanoma it was 3.13 µM.
